Read-outs that look alike come from different tables or passages of the source.

The values below come from patent US4666900A, “Anti-ulcer and anti-hypersecretion dibenzoimidazothiazepine derivatives, compositions, and method of use therefor” (John Wyeth & Brother Ltd., priority 1985, dated 1987).

This assay relates to rabbit isolated gastric glands. Briefly: Inhibition of secretagogue-stimulated C-aminopyrine uptake in rabbit isolated gastric glands (anti-secretory activity, H+/K+ ATPase). The assay is classed as cell-based. Particulars: 10^-4 M test compound, % inhibition of maximum response to secretagogue; for inhibition at 100 µM: Oryctolagus cuniculus. The protocol:
Compounds of formula I were tested for anti-secretory activity by their ability to inhibit the effect of one or two secretagogues on isolated gastric glands.
Potential inhibitors of the highly specific proton transporting enzyme H^+ /K^+ ATPase were evaluated by a technique involving the measurement of aminopyrine accumulation in rabbit isolated gastric glands. Aminopyrine accumulates in acid-secreting cells; therefore, uptake of aminopyrine is increased by secretagogues and an inhibitor of acid secretion will reduce the response to one or more secretagogues depending upon its site of action. Compounds which reduce the response to dibutyryl cyclic adenosine monophosphate (DBcAMP) stimulation are assumed to have an intracellular site of action, and those which reduce the response to both DBcAMP and high potassium ion concentration (K^+) are thought to have an intracellular site of action at the secretory surface of the parietal cell, involving the highly specific proton-transporting enzyme, H^+ /K^+ ATPase.
The following procedure is used:
Rabbit glands are isolated from gastric mucosa from the corpus region of the stomach by a method based on one described by Berglindh T., Obrink K. J., Acta Physiol. Scand. 96, 150-159 (1976). Measurement of aminopyrine uptake is carried out using a procedure based on the method described by Berglindh T., Hellander H. F., Obrink K. J. (ibid. 97 401-414, 1976).
Compounds are tested at a concentration of 10^-4 M, for their ability to inhibit C-aminopyrine uptake in gastric glands, stimulated by DBcAMP and high K^+ respectively. Results are expressed as the % inhibition of the maximum response to the secretagogue induced by the test compound.

Where [1] appears, read: high K+-stimulated aminopyrine uptake, read-out: % Inhibition to stimulation by: k+.
Where [2] appears, read: DBcAMP-stimulated aminopyrine uptake, read-out: % Inhibition to stimulation by: DBcAMP.

One may read the inhibition as the percentage by which the read-out fell short of the control. For `Cc1cc2nc3n(c2cc1C)Cc1ccccc1CS3` [8,13-Dihydro-4,5-dimethyldibenzo[d,h]imidazo[2,1-b][1,3]thiazepine], the “% Inhibition to stimulation by: DBcAMP” value (DBcAMP-stimulated aminopyrine uptake) is “ns”. The inhibition at 100 µM under setting [1] is 80%.

Consider `[O-][S+]1Cc2ccccc2Cn2c1nc1ccccc12` (stereo not drawn) [8,13-Dihydrodibenz[d,h]imidazo[2,1-b][1,3]thiazepine-1-oxide], for which the “% Inhibition to stimulation by: k+” value (high K+-stimulated aminopyrine uptake) is on record as “ns”. In addition, the inhibition at 100 µM under setting [2] is 31%.

As to `c1ccc2c(c1)CSc1nc3ccccc3n1C2` [8,13-Dihydrodibenzo[d,h]imidazo[2,1-b][1,3]thiazepine], the inhibition at 100 µM amounted to 32% under setting [2] and 94% under setting [1].
